The record followed here is patent US12404285B2, “KRAS G12D proteolysis targeting chimeras” (PAQ Therapeutics Inc., priority 2022, dated 2025).

In this experiment the target is T1, KRAS (G12D)-HiBit in AsPc-1-KRAS (G12D)-HiBit-KI cell (Homo sapiens, UniProt P01116, G12D).
T1 construct: host or cells: AsPc-1-KRAS (G12D)-HiBit-KI cells (knock-in line)
T1 sequence (P01116 1-188 isoform P01116-2 G12D): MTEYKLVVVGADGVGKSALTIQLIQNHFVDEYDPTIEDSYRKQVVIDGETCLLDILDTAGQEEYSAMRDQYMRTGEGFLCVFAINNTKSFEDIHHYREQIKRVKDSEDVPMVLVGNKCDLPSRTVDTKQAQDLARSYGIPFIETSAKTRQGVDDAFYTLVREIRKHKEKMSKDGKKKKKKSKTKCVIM
Description: G12D HiBit assay. Type of experiment: cell-based. Conditions: 24 hours compound treatment, absolute DC50, read-out: Average PHA DC50. The method, boiled down: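 Degradation of endogenous HiBiT-tagged KRAS G12D in AsPc-1 knock-in cells read after 24 h compound exposure (0.015-300 nM, 3-fold steps) by Nano-Glo HiBiT lytic luminescence. Signal normalised to DMSO-only cells; absolute DC50 derived by curve fitting.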
On the technique in general: The HiBiT peptide binds its large partner to form an active luciferase.
Turning to `C#Cc1c(F)ccc2cccc(-c3ncc4c(N5CC6CCC(C5)N6)nc(OC[C@@]56CCCN5[C@H](COC(=O)N5CCC(OC7CCN(c8ccc9c(c8)n(C)c(=O)n9C8CCC(=O)NC8=O)CC7)CC5)CC6)nc4c3F)c12` (stereo partly drawn) [Compound 98, [(3S,8S)-8-[[4-(3,8-Diazabicyclo[3.2.1]octan-3-yl)-7-(8-ethynyl-7-fluoro-1-naphthyl)-8-fluoro-pyrido[4,3-d]pyrimidin-2-yl]oxymethyl]-1,2,3,5,6,7-hexahydropyrrolizin-3-yl]methyl 4-[[1-[1-(2,6-dioxo-3-piperidyl)-3-methyl-2-oxo-benzimidazol-5-yl]-4-piperidyl]oxy]piperidine-1-carboxylate], the DC50 is less than 100 nM.

`C#Cc1c(F)ccc2cccc(-c3ncc4c(N5CC6CCC(C5)N6)nc(OC[C@@]56CCCN5[C@H](COC(=O)N5CCC(OCCCC#Cc7ccc8c(c7)n(C)c(=O)n8C7CCC(=O)NC7=O)CC5)CC6)nc4c3F)c12` (stereo partly drawn) [Compound 114, [(3S,8S)-8-[[4-(3,8-Diazabicyclo[3.2.1]octan-3-yl)-7-(8-ethynyl-7-fluoro-1-naphthyl)-8-fluoro-pyrido[4,3-d]pyrimidin-2-yl]oxymethyl]-1,2,3,5,6,7-hexahydropyrrolizin-3-yl]methyl 4-[5-[1-(2,6-dioxo-3-piperidyl)-3-methyl-2-oxo-benzimidazol-5-yl]pent-4-ynoxy]piperidine-1-carboxylate]: the DC50 was less than 100 nM.

`C#Cc1c(F)ccc2cccc(-c3ncc4c(N5CC6CCC(C5)N6)nc(OC[C@@]56CCCN5[C@H](COC(=O)N5CCC(CCC7CCN(Cc8ccc9c(c8)n(C)c(=O)n9C8CCC(=O)NC8=O)CC7)CC5)CC6)nc4c3F)c12` (stereo partly shown) [Compound 69]: the DC50 is less than 100 nM.

Regarding `C#Cc1c(F)ccc2cccc(-c3ncc4c(N5CC6CCC(C5)N6)nc(OC[C@@]56CCCN5[C@H](COC(=O)N5CC(COC7CCN(c8ccc9c(c8)n(C)c(=O)n9C8CCC(=O)NC8=O)CC7)C5)CC6)nc4c3F)c12` (stereo partly drawn) [Compound 104, [(3S,8S)-8-[[4-(3,8-Diazabicyclo[3.2.1]octan-3-yl)-7-(8-ethynyl-7-fluoro-1-naphthyl)-8-fluoro-pyrido[4,3-d]pyrimidin-2-yl]oxymethyl]-1,2,3,5,6,7-hexahydropyrrolizin-3-yl]methyl 3-[[1-[1-(2,6-dioxo-3-piperidyl)-3-methyl-2-oxo-benzimidazol-5-yl]-4-piperidyl]oxymethyl]azetidine-1-carboxylate], the DC50 is less than 100 nM.

As for `C#Cc1c(F)ccc2cccc(-c3ncc4c(N5CC6CCC(C5)N6)nc(OC[C@@]56CCCN5[C@H](COC(=O)N5CCC(OCCCCc7cccc8c7n(C)c(=O)n8C7CCC(=O)NC7=O)CC5)CC6)nc4c3F)c12` (stereo partly drawn) [Compound 117, [(3S,8S)-8-[[4-(3,8-Diazabicyclo[3.2.1]octan-3-yl)-7-(8-ethynyl-7-fluoro-1-naphthyl)-8-fluoro-pyrido[4,3-d]pyrimidin-2-yl]oxymethyl]-1,2,3,5,6,7-hexahydropyrrolizin-3-yl]methyl4-[4-[1-(2,6-dioxo-3-piperidyl)-3-methyl-2-oxo-benzimidazol-4-yl]butoxy]piperidine-1-carboxylate], the DC50 is less than 100 nM.

Turning to `C#Cc1c(F)ccc2cccc(-c3ncc4c(N5CC6CCC(C5)N6)nc(OC[C@@]56CCCN5[C@H](COC(=O)N5CCC(OCCCCCc7ccc8c(c7)n(C)c(=O)n8C7CCC(=O)NC7=O)CC5)CC6)nc4c3F)c12` (stereo partly drawn) [Compound 120, [(3S,8S)-8-[[4-(3,8-Diazabicyclo[3.2.1]octan-3-yl)-7-(8-ethynyl-7-fluoro-1-naphthyl)-8-fluoro-pyrido[4,3-d]pyrimidin-2-yl]oxymethyl]-1,2,3,5,6,7-hexahydropyrrolizin-3-yl]methyl 4-[5-[1-(2,6-dioxo-3-piperidyl)-3-methyl-2-oxo-benzimidazol-5-yl]pentoxy]piperidine-1-carboxylate], the DC50 is less than 100 nM.

In the case of `C#Cc1c(F)ccc2cccc(-c3ncc4c(N5CC6CCC(C5)N6)nc(OC[C@@]56CCCN5[C@H](COC(=O)N5CCC(CC7CCN(c8cccc9c8n(C)c(=O)n9C8CCC(=O)NC8=O)CC7)CC5)CC6)nc4c3F)c12` (stereo partly shown) [Compound 48], the DC50 is not below 300 nM.
